Data taken from US12319664B2, “Herbicidally active 3-phenylisoxazoline-5-carboxamides of cyclopentenylcarboxylic acid derivatives” (Bayer Aktiengesellschaft, priority 2018, dated 2025).

Experiments:
HORMU = assay: Post-emergence herbicidal action against HORMU; format: in vivo, Hordeum murinum; details: application rate 80 g/ha
Procedure: (§1) [table] 2. Post-emergence herbicidal action against harmful plants and crop plant compatibility Seeds of monocotyledonous and dicotyledonous weeds and crop plants are placed in sandy loam in plastic or wood-fibre pots, covered with soil and cultivated in a greenhouse under controlled growth conditions. 2 to 3 weeks after sowing, the test plants are treated at the one-leaf stage. The compounds of the invention, formulated in the form of wettable powders (WP) or as emulsion concentrates (EC), are then sprayed onto the green parts of the plants as aqueous suspension or emulsion with addition of 0.5% additive at a water application rate of 600 l/ha (converted). After the test plants have been kept in the greenhouse under optimum growth conditions for about 3 weeks, the activity of the preparations is rated visually in comparison to untreated controls. For example, 100% activity=the plants have died, 0% activity=like control plants.

AVEFA = assay: Post-emergence herbicidal action against AVEFA; format: in vivo, Avena fatua; details: application rate 80 g/ha, rated visually after about 3 weeks
Procedure: as §1

PHBPU = assay: Post-emergence herbicidal action against PHBPU; format: in vivo, Pharbitis purpurea; details: application rate 80 g/ha, rated visually about 3 weeks after treatment
Procedure: as §1

ECHCG = assay: Post-emergence herbicidal action against ECHCG; format: in vivo, Echinochloa crus-galli; details: application rate 80 g/ha, rated visually after about 3 weeks
Procedure: as §1

AMARE = assay: Post-emergence herbicidal action against AMARE; format: in vivo, Amaranthus retroflexus; details: application rate 80 g/ha, rated visually about 3 weeks after treatment
Procedure: as §1

ABUTH = assay: Post-emergence herbicidal action against ABUTH; format: in vivo, Abutilon theophrasti; details: application rate 80 g/ha, rated visually about 3 weeks after treatment
Procedure: as §1

ALOMY = assay: Post-emergence herbicidal action against ALOMY; format: in vivo, Alopecurus myosuroides; details: application rate 80 g/ha, rated visually after about 3 weeks
Procedure: as §1

SETVI = assay: Post-emergence herbicidal action against SETVI; format: in vivo, Setaria viridis; details: application rate 80 g/ha, rated visually after about 3 weeks
Procedure: as §1

LOLRI = assay: Post-emergence herbicidal action against LOLRI; format: in vivo, Lolium rigidum; details: application rate 80 g/ha, rated visually after about 3 weeks
Procedure: as §1

STEME = assay: Post-emergence herbicidal action against STEME; format: in vivo, Stellaria media; details: application rate 80 g/ha, rated visually about 3 weeks after treatment
Procedure: as §1

VERPE = assay: Post-emergence herbicidal action against VERPE; format: in vivo, Veronica persica; details: application rate 80 g/ha
Procedure: as §1

VIOTR = assay: Post-emergence herbicidal action against VIOTR; format: in vivo, Viola tricolor; details: application rate 80 g/ha, rated visually about 3 weeks after treatment
Procedure: as §1

POLCO = assay: Post-emergence herbicidal action against POLCO; format: in vivo, Polygonum convolvulus; details: application rate 80 g/ha, rated visually about 3 weeks after treatment
Procedure: as §1

Row | SMILES | Herbicidal action against [%] HORMU (HORMU) [%] | Herbicidal action against [%] AVEFA (AVEFA) [%] | Herbicidal action against [%] PHBPU (PHBPU) [%] | Herbicidal action against [%] ECHCG (ECHCG) [%] | Herbicidal action against [%] AMARE (AMARE) [%] | Herbicidal action against [%] ABUTH (ABUTH) [%] | Herbicidal action against [%] ALOMY (ALOMY) [%] | Herbicidal action against [%] SETVI (SETVI) [%] | Herbicidal action against [%] LOLRI (LOLRI) [%] | Herbicidal action against [%] STEME (STEME) [%] | Herbicidal action against [%] VERPE (VERPE) [%] | Herbicidal action against [%] VIOTR (VIOTR) [%] | Herbicidal action against [%] POLCO (POLCO) [%]
1 | COc1cc(OC)cc(C2=NOC(C(=O)NC3C=CC(C(=O)OCCCl)C3)(C(F)(F)F)C2)c1 (mixture of isomers) [Example I-044] | 100 | 80 | 80 | 90 | 80 | 90 |  |  |  |  |  |  | 
2 | O=C(OCCCl)C1C=CC(NC(=O)C2(C(F)(F)F)CC(c3cccc(Cl)c3)=NO2)C1 (mixture of isomers) [Example I-045] | 90 | 90 | 80 | 80 |  | 80 | 100 | 80 | 80 | 80 |  |  | 
3 | O=C(OCC(F)(F)F)C1C=CC(NC(=O)C2(C(F)(F)F)CC(c3cccc(Cl)c3)=NO2)C1 (mixture of isomers) [Example I-051] | 90 | 90 | 80 | 80 |  | 80 | 100 |  | 90 | 90 | 80 |  | 
4 | Cc1cc(C)cc(C2=NOC(C(=O)NC3C=CC(C(=O)OCC(F)(F)F)C3)(C(F)(F)F)C2)c1 (mixture of isomers) [Example I-057] | 80 |  |  | 80 |  |  | 90 |  | 90 | 80 | 80 | 80 | 80
5 | CC1(C(=O)NC2C=CC(C(=O)O)C2)CC(c2cccc(C#N)c2)=NO1 (mixture of isomers) [Example I-070] | 90 | 100 | 80 | 90 | 90 | 80 | 90 | 90 | 80 | 80 | 80 |  | 90
6 | CCOC(=O)C1C=CC(NC(=O)C2(C)CC(c3cc(F)cc(C#N)c3)=NO2)C1 (mixture of isomers) [Example I-073] | 90 | 100 | 80 | 100 | 80 | 80 | 90 | 80 | 100 | 90 | 80 |  | 90
7 | COCCOC(=O)C1C=CC(NC(=O)C2(C(F)(F)F)CC(c3cccc(C#N)c3)=NO2)C1 (mixture of isomers) [Example I-086] | 100 | 90 | 80 | 90 | 90 | 90 | 90 | 90 | 90 | 80 | 90 |  | 80
8 | C=CC1(C(=O)NC2C=CC(C(=O)NC(C(=O)OC)C(C)C)C2)CC(c2cc(F)cc(F)c2)=NO1 (single isomer, unassigned) [II-26] | 100 | 90 | 80 | 80 | 90 | 80 | 100 | 80 | 100 | 90 | 80 |  | 80
9 | CC(C)(C)OC(=O)[C@@H]1C=C[C@H](NC(=O)C2(C)CC(c3cc(F)cc(F)c3)=NO2)C1 (some centres unmarked) [Example I-007] | 90 | 90 | 90 | 90 |  | 80 | 90 | 90 | 90 | 90 | 90 |  | 80
10 | CC1(C(=O)N[C@H]2C=C[C@@H](C(=O)OCC(F)(F)F)C2)CC(c2cc(F)cc(F)c2)=NO1 (some centres unmarked) [Example I-010] | 90 | 90 | 90 | 90 | 90 | 80 | 90 | 90 | 90 | 80 | 90 |  | 90
11 | CCOC(=O)[C@@H]1C=C[C@H](NC(=O)C2(C(F)(F)F)CC(c3ccccc3)=NO2)C1 (some centres unmarked) [Example I-021] | 90 | 100 | 80 | 80 | 90 | 80 | 90 | 90 | 90 | 80 | 80 |  | 90
12 | Cc1cc(Cl)cc(C2=NOC(C(=O)N[C@H]3C=C[C@@H](C(=O)OCC(F)(F)F)C3)(C(F)(F)F)C2)c1 (some centres unmarked) [Example I-029] | 80 | 80 |  |  | 90 |  | 90 | 80 | 90 |  | 90 | 80 | 80
13 | C=C[C@]1(C(=O)N[C@H]2C=C[C@H](C(=O)OC)C2)CC(c2cc(F)cc(F)c2)=NO1 [Example I-054] | 90 | 100 | 80 | 90 | 80 |  | 90 | 80 | 100 | 80 | 90 |  | 80
14 | C=CC1(C(=O)NC2C=CC(C(=O)N3CCCO3)C2)CC(c2cc(F)cc(F)c2)=NO1 (centres unmarked) [II-28] | 80 | 80 | 90 | 90 | 80 | 90 | 100 | 80 | 90 | 90 | 90 |  | 80
15 | CC(C)(NC(=O)C1C=CC(NC(=O)C2(C(F)(F)F)CC(c3cc(F)cc(F)c3)=NO2)C1)C(F)(F)F (centres unmarked) [II-38] |  |  |  |  | 90 |  |  |  |  |  |  | 80 | 
16 | C=CC1(C(=O)N[C@H]2CC=C(C(=O)OC(C)C)C2)CC(c2cc(F)cc(F)c2)=NO1 (some centres unmarked) [III-13] | 90 | 90 | 90 | 90 | 90 | 80 | 90 | 80 | 100 | 90 | 80 |  | 80
